Reference: patent publication US5444083A, “Pyrrolidine compound and pharmaceutical use” (Eisai Co., Ltd., priority 1989, dated 1995)
Counter-ions that a name gives are not always drawn.

What was measured:
[1] = molecular target: T1, D1 receptor (striatum of rat) (Rattus norvegicus, UniProt P18901); assay: specific binding of D1 receptors in the striatum of rat; conditions: displacement of 3H-Sch23390 0.3 nM, rat striatum synaptosome fraction, 37 degree centigrade, 15 minutes
T1 construct: The striatum of rats were excised, homogenized; from tissue; host or cells: rat striatum, synaptosome fraction
T1 sequence (P18901 whole entry): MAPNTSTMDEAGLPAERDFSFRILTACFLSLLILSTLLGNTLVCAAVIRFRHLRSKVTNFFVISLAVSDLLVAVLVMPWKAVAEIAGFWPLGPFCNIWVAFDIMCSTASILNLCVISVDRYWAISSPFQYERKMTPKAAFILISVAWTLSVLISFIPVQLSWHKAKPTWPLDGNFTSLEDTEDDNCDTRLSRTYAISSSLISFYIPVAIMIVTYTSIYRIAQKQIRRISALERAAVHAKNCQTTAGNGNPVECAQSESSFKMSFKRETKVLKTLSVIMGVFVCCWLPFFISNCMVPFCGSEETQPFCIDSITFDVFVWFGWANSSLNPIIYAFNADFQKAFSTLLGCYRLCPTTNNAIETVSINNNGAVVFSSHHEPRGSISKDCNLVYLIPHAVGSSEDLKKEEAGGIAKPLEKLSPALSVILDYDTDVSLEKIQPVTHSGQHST
Method: (§1) 1. Test on specific binding of D1 and D2 receptors in the striatum of rat
(§2) The striatum of rats were excised, homogenized with a 0.05M Tris Fuffer and then centrifuged at 20,000×g to collect its synaptosome fraction. The sediment was washed several times with a 0.25M Tris Buffer and suspended in a 0.05M Tris Buffer containing 120 mM of Nacl, 5 mM of KCl, 2 mM of CaCls and 1 mM of MgCl2. The suspension was, in portions, placed in the frozen state at minus 80 degree centigrade. ^3 H-Sch23390 having a final concentration of 0.3 nM in the case of D1 and ^3 H-Spiperone having a finish concentration of 0.2 nM in the case of D2 were added to the portions of the suspension, respectively, together with a specimen. The mixtures were incubased at 37 degree centigrade for 15 minutes. Having been filtrated with a Whatman GF/B filter, they were examined with a liquid scintillation counter.

[2] = molecular target: T2, D2 receptor (striatum of rat) (Rattus norvegicus, UniProt P61169); assay: specific binding of D2 receptors in the striatum of rat; conditions: displacement of 3H-Spiperone 0.2 nM, rat striatum synaptosome fraction, 37 degree centigrade, 15 minutes
T2 construct: The striatum of rats were excised, homogenized; from tissue; host or cells: rat striatum, synaptosome fraction
T2 sequence (P61169 whole entry): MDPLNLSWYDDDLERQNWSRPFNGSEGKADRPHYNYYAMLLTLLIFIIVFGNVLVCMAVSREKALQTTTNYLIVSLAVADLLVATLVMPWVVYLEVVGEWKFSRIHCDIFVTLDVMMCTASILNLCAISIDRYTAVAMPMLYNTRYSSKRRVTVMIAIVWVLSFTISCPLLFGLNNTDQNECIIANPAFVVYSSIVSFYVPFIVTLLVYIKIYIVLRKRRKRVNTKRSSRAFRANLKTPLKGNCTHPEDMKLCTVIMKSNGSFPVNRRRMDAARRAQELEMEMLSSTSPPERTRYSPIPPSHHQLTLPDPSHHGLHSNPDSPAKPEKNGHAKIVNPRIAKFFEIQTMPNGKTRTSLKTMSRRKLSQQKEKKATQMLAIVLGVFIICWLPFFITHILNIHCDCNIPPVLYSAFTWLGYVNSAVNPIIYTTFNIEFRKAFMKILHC
Method: as §1, §2

[3] = test system: anesthetized dogs; assay: Action cardiohemodynamics in anesthetized dogs; type: in vivo, Mongrel dogs; conditions: Canis lupus familiaris, iv, intravenously, read-out: decrease of mean blood pressure; for inhibition in vivo at 0.01 mg/kg: 10 microgram/kg; for inhibition in vivo at 0.003 mg/kg: 3 microgram/kg; for inhibition in vivo at 0.001 mg/kg: 1 microgram/kg
Method: 2. Action cardiohemodynamics in anesthetized dogs
Mongrel dogs of about 10 kg were anesthetized with the intravenous administration of 20 mg/kg of thiopental sodium. They were then treated by introducing oxygen gas, nitrous oxide gas and enflurane in combination through an endotracheal tube inserted thereinto to conduct artificial respiration and with an Acoma artificial respirator ARF-850E (trademark) and an Acoma anesthesia apparatus EM-A (trademark) to keep the anesthesia still effective. The aortic pressure and the internal pressure of the left ventricle were determined with a micro-tip catheter pressure transducers, MPC-500, tradename of Miller, inserted at the femoral arteries. The renal blood […] was determined by exposing by laparotomy the renal artery to a probe of an electromagnetic blood flowmeter, MFV-2100, tradename of Nihon Kohden Corp. Results are caught with a polygraph system, RM-6000, tradename of Nihon Kohden Corp.
The specimen was dissolved in a 0.9% saline solution and administered at the brachial vein through a catheter inserted thereinto. When the administration was made at the duodenum, the duodenum was exposed by the median incision to a catheter inserted thereinto. Results are shown in terms of an increase in percent of the renal blood flow and a decrease in percent of the mean blood pressure when the test compound was administered.

IC50 [1]	IC50 [2]	Compound	inhibition in vivo at 0.01 mg/kg [3]	inhibition in vivo at 0.003 mg/kg [3]	inhibition in vivo at 0.001 mg/kg [3]
4800 nM	88000 nM	Oc1ccc([C@@H]2CNC[C@H]2c2ccccc2)cc1O (relative stereo) [Compound A, trans-3-(3,4-dihydroxyphenyl)-4-phenylpyrrolidine hydrobromide]			
600 nM	10000 nM	Cc1ccccc1[C@@H]1CNC[C@H]1c1ccc(O)c(O)c1 (relative stereo) [Compound B, trans-3-(3,4-dihydroxyphenyl)-4-(2-methylphenyl)pyrrolidine hydrobromide]	23%		
600 nM	7000 nM	Oc1ccc([C@@H]2CNC[C@H]2c2ccccc2Cl)cc1O (relative stereo) [Compound C, trans-3-(2-chlorophenyl)-4-(3,4-dihydroxyphenyl)pyrrolidine hydrobromide]	21%		
380 nM	5300 nM	Oc1ccc([C@@H]2CNC[C@H]2c2cccc(O)c2Cl)cc1O (relative stereo) [Compound D, trans-3-(2-chloro-3-hydroxyphenyl)-4-(3,4-dihydroxyphenyl)pyrrolidine hydrobromide]		15%	
170 nM	90000 nM	Cc1ccsc1[C@@H]1CNC[C@H]1c1ccc(O)c(O)c1 (relative stereo) [Compound E, trans-3-(3,4-dihydroxyphenyl)-4-(3-methylthienyl)pyrrolidine hydrobromide]	15%		
9000 nM	50000 nM	Cc1ccsc1[C@H]1CNC[C@H]1c1ccc(O)c(O)c1 (relative stereo) [Compound F, cis-3-(3,4-dihydroxyphenyl)-4-(3-methylthienyl)pyrrolidine hydrobromide]			
400 nM	6000 nM	Oc1ccc([C@@H]2CNC[C@H]2c2cccc3ccsc23)cc1O (relative stereo) [Compound G, trans-3-(7-benzothiophenyl)-4-(3,4-dihydroxyphenyl)pyrrolidine hydrobromide]			
300 nM	300 nM	Oc1ccc([C@@H]2CNC[C@H]2Cc2cc(Cl)ccc2O)cc1O (relative stereo) [Compound H, trans-3-(3-chloro-6-hydroxyphenyl)-methyl-4-(3,4-dihydroxyphenyl)-pyrrolidine]		15%	
200 nM	70 nM	Oc1ccc([C@@H]2CNC[C@H]2Cc2c(O)cccc2O)cc1O (relative stereo) [Compound I, trans-3-(2,6-dihydroxyphenyl)methyl-4-(3,4-dihydroxyphenyl)pyrrolidine]		29%	
130 nM	1000 nM	Oc1ccc([C@@H]2CNC[C@H]2Cc2c(O)ccc(Cl)c2O)cc1O (relative stereo) [Compound J, trans-3-(3-chloro-2,6-dihydroxyphenyl)-methyl-4-(3,4-dihydroxyphenyl)-pyrrolidine]			22%
130 nM	2000 nM	Oc1ccc([C@@H]2CNC[C@H]2Cc2cc(F)cc(F)c2O)cc1O (relative stereo) [Compound K, trans-3-(3,5-difluoro-2-hydroxyphenyl)-methyl-4-(3,4-dihydroxyphenyl)-pyrrolidine]			17%
200 nM	5000 nM	Oc1ccc([C@@H]2CNC[C@H]2Cc2cccc(F)c2O)cc1O (relative stereo) [Compound L, trans-3-(3-fluoro-2-hydroxyphenyl)methyl-4-(3,4-dihydroxyphenyl)pyrrolidine]		21%	
